The data set deals with T1, cDNA-expressed recombinant CYP2D6 (Homo sapiens, UniProt P10635).
T1 construct: purchased Gentest Corp. (Woburn, Mass.); host or cells: insect cells (microsomal preparation)
Put plainly: Apparent Ki with recombinant CYP2D6 (bufuralol 1'-hydroxylation; Dixon plots, SNLR). The class given is in vitro ADME. The following applies: for Ki: recombinant CYP2D6. The procedure: If inhibition was detected, the inhibitory potency was determined using recombinant CYPs. Compound 1 appeared to inhibit the activities of CYP2D6 and CYP2C19. Therefore, three concentrations of S-mephenyloin (30, 80, and 200 μM) and bufuralol (5, 10, and 40 μM), and a range of concentrations (0-200 μM) of Compound 1 were used for the construction of Dixon plots and simultaneously nonlinear regression (SNLR) analyses were performed. The incubation conditions and sample preparations were the same as previously described.
3. CYP2D6-mediated bufuralol 1′-hydroxylation (Boobis et al., Bioch. Pharmacol. 34:65-71, 1985): The HPLC system was interfaced with a SCIEX API2000 triple quadrupole mass spectrometer (PE Biosystem, Foster City, Calif.). A Sulpelco Discovery C18 column (150×2.1 mm) and isocratic mobile phase was applied. The mobile phase, 10 mM ammonium acetate-acetonitrile/60:40, was run at 0.2 mL/minute. The operation of the LC/MS/MS was controlled by use of software, MacChrom (Version 1.6). The MS/MS was operated at positive ESI with 5.5 kV ionization potential and 500° C. ion source temperature. Multiple reaction monitoring (MRM) was applied for the quantification. The MRM transition ions were m/z 278→186 for 1′-hydroxybufuralol, and m/z 266→234 for the internal standard (1S) albendazole.
Data were acquired and analyzed by ChemStation (Version 6.03, Hewlett Packard, Waldbronn, Germany) for 6-, 7-, and 10-hydroxywarfarin and 6-hydroxychlorzoxazone, and MacQuan (Version 1.6, PE Biosystem, Foster City, Calif.) for 1′-hydroxybufuralol and 4′-hydroxymephenytoin. Quantification was based on peak area ratios of metabolites over the respective IS against the respective concentration of the metabolites. The standard curves were generated by linear regression with (6-, 7-, and 10-hydroxywarfarin, 1′-hydroxybufuralol, and 4′-hydroxymephenytoin) or without (6-hydroxychlorzoxazone) a weighting factor (1/x^2). The metabolic rates were determined using Excel (Microsoft Office 97, Microsoft Corporation, Redmond, Wash.) or SigmaPlot (Version 6.00, SPSS Inc. Chicago, Ill.). […]

Entries after “also recorded” stand apart in the source; their conditions may differ. Where two headings read alike, the source gives them in different places.

T1 sequence (P10635 whole entry): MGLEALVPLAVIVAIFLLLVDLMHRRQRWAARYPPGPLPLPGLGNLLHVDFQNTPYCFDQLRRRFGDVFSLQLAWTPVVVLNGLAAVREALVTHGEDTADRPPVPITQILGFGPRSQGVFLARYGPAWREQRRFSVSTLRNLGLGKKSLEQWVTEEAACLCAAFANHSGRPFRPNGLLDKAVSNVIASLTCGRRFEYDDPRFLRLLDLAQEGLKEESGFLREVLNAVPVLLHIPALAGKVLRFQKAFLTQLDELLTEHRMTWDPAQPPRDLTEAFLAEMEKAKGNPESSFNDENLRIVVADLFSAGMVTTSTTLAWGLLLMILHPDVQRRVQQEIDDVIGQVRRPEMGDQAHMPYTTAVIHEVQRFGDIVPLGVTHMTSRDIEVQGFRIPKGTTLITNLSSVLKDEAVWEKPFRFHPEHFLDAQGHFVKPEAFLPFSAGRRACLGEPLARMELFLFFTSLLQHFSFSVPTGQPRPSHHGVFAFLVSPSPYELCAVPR

Consider `CNC(=O)Cc1ccc2ccn(C3CCN(CCc4ccccc4F)CC3)c2c1` [Compound 1, N-methyl-[1-[1-(2-fluorophenethyl)piperidine-4-yl]-1H-indol-6-yl] acetamide], for which, under “Dixon plots and SNLR analyses”, the “type of inhibition of CYP2D6” value is listed as “competitive inhibitor; also recorded: primarily, if not fully, competitive”. Also, the Ki was roughly 20 µM (Dixon plots, bufuralol 5, 10, 40 μM, read-out: apparent Ki, CYP2D6, estimated by Dixon plots) and 15 µM (SNLR, competitive inhibition model, read-out: apparent Ki, CYP2D6 inhibition, determined by SNLR).

These data come from patent US20050033056A1, “Hydroxylated indole derivatives and uses thereof” (priority 2001, published 2005).
